Experimental data as given in US4759917A, “Oxidative dissolution of gallium arsenide and separation of gallium from arsenic” (priority 1987, dated 1988).
Where “and” joins values, the source holds several entries; their conditions need not be identical. Equal entries are not always repeated. Structures can show the parent of a compound that is named as a salt. Where two headings read alike, the source gives them in different places. Values belong to the compound of their own block, whether it stands above or below them.

Assays:
[1] = Example 2: complexing agents with hydrogen peroxide to oxidize and dissolve gallium arsenide (Table 3)
[2] = Hydrolysis of hydroxamic acids in gallium extraction, washing and stripping procedures (Table 2); type: physicochemical; conditions: hydrolysis after gallium extraction, spectrophotographic analysis
Protocol: The extent of hydrolysis of some hydroxamic acids used in some gallium extraction, washing and stripping procedures was determined by spectrophotographic analysis of the solution after completion of the procedures, with results as reported in Table 2.
The procedures and further information on the hydrolytic stability of N-alkyl hydroxamic acids are reported in the aforesaid copending application Ser. No. 937,849. The hydrolytic stability of the N-alkyl hydroxamic acids is an advantage for their use in the present invention.

[3] = Aqueous solubilities of N-alkylalkano and N-H hydroxamic acids (Table 1); type: physicochemical
Source text: It is desirable that the N-organo hydroxamic acid have low solubility in water in order to effect ready separation of the chelated gallium from the aqueous oxidizing medium.
For the extraction to occur, it is necessary that the extractant have some slight solubility in the aqueous Ga-containing medium.

[4] = Example 4: oxidizing agents with N-methylnonanohydroxamic acid as complexing agent on gallium arsenide (Table 5)
Protocol: A series of procedures were conducted to test effectiveness of various complexing agents with hydrogen peroxide to oxidize and effect dissolution of gallium arsenide. A 0.5 gram amount of GaAs powder was added to a 50 ml beaker with 20 ml deionized water. The complexing agent was added with stirring, followed by addition of 5 ml 30% hydrogen peroxide in water with stirring. Stirring was continued for about 10 minutes with gradual heating on a hot plate to 85° C., with observation for reaction. The mixtures were then allowed to stand at room temperature for about four days with observation for further changes, and the percentage of the starting gallium which had dissolved was determined by analysis of the liquid by atomic absorption.
Using the procedure of Example 2 and 3.0 ml of N-methylnonanohydroxamic acid as complexing agent, a number of oxidizing agents were employed with gallium arsenide, with results as reported in Table 5.

[5] = Example 1: gallium recovery from Lap Sludge by simultaneous dissolution and separation
[6] = Solubility in a typical phosphate rock treater dust leachate; type: physicochemical; conditions: leachate with high concentrations of Al, Zn, Fe, phosphate and other ions
Source text: It wlll be noted that most of the N-alkyl hydroxamic acids have very low solubilities in aqueous media, with the solubility tending to increase with decreasing number of carbon atoms in the hydroxamic acids. […] This appreciable but limited solubility appears responsible for the effectiveness of N-methylnonanohydroxamic acid in extracting Ga from such leachates, with regard to both rate and extent of the extraction compared to higher carbon number N-alkyl hydroxamic acids. For the extraction to occur, it is necessary that the extractant have some slight solubility in the aqueous Ga-containing medium.

[7] = 0.5 g GaAs, 20 ml water, 5 ml 30% H2O2, heated to 85° C. about 10 min, then about four days at room temp.
[8] = observation during about 10 min stirring with heating to 85° C., H2O2
[9] = 3.0 ml N-methylnonanohydroxamic acid as complexing agent
[10] = 30% H2SO4 strip of organic phase
[11] = aqueous phase plus dilute nitric acid and other washes

Compound: O=P([O-])(O)O.[Na+] [Monobasic sodium phosphate (NaH2 PO4), Monobasic sodium phosphate]
% Ga in Solution After 4 Days [1, 7]: 0% | Initial Result [1, 8]: No reaction

Compound: CCCCC(CC)COP(=O)(O)OCC(CC)CCCC (centres unmarked) [Di-(2-ethylhexyl) phosphoric acid]
% Ga in Solution After 4 Days [1]: 0% | Initial Result [1]: No reaction

Compound: O=C(O)CN(CC(=O)O)CC(=O)O [Sodium nitrilo triacetate]
% Ga in Solution After 4 Days [1]: 100% | Initial Result: time to complete reaction ([1]; heating to 85° C., H2O2): 3 min

Compound: O=C(O)C(=O)O [Sodium oxalate]
% Ga in Solution After 4 Days [1]: 100% | Initial Result: time to complete reaction ([1]; heating to 85° C., H2O2): 1 min | Initial Result [1, 8]: small prec.

Compound: naphthenohydroxamic acid [N--H naphthenohydroxamic acid, reference compound]
% Decomposition [2]: 45.0%

Compound: CC(=O)NO [Acetohydroxamic Acid]
Initial Result: time to complete dissolution [1]: 25 min | Initial Result: % reacted in 30 min. ([1]; 0.62 grams, omitted heating, 30 min.): 80% | % Ga in Solution After 4 Days (omitted heating) ([1]; omitted heating, H2O2): 100%

Compound: neotridecanohydroxamic acid
Solubility (25° C.) [3]: 328. ppm | Solubility (25° C.), molarity [3]: 1.43 × 10^-3 molarity

Compound: II
Result: time to complete reaction, no heating [4, 9]: 60 s

Compound: C=CC(CC(C)(C)CC(C)(C)C)c1ccc2cccnc2c1O (centres unmarked) [Kelex ® 100]
% Ga in Solution After 4 Days [1]: 0%

Compound: [Na+].[OH-] [NaOH, sodium hydroxide]
% Ga in Solution After 4 Days [1]: 100%

Compound: CCCCCCCCCCCC(=O)NO [dodecanohydroxamic acid]
effectiveness in reaction and dissolution of gallium arsenide ([1]; H2O2 as oxidizing agent): reaction did not occur | Initial Result [1, 8]: No reaction | % Ga in Solution After 4 Days (omitted heating) ([1]; omitted heating, H2O2): 100% | Initial Result: time to complete reaction ([1]; with 10 ml 2-ethyl hexanol, omitted heating, H2O2): 360 min | Initial Result in 15 min. ([1]; with 10 ml 2-ethyl hexanol, omitted heating, mild exotherm, 15 min.): Some reaction | time for complete reaction ([1]; with a solvent (Test ε)): about 6 hours

Compound: Oc1cccc2cccnc12 [Oxine (8-hydroxy quinoline), 8-hydroxy quinoline]
Initial Result [1]: Precipitate

Compound: [K+].[OH-] [KOH, potassium hydroxide]
Initial Result [1]: No reaction

Compound: O=P([O-])([O-])O.[Na+].[Na+] [Disbasic Sodium phosphate (Na2 HPO4), Disbasic Sodium phosphate]
% Ga in Solution After 4 Days [1]: 100% | effectiveness in reaction and dissolution of gallium arsenide [1]: effective in causing dissolution, but at a slow rate and with some white precipitate formation

Compound: CC(=O)N(C)O [Nmethyl acetohydroxamic acid, N-methyl acetohydroxamic acid]
Initial Result: time to complete dissolution [1]: 5 min | Initial Result: % reacted in 10 min. ([1]; 0.80 grams, omitted heating, 10 min.): 90% | effectiveness in reaction and dissolution of gallium arsenide ([1]; H2O2 as oxidizing agent): the chelated gallium does not readily separate from the aqueous oxidation medium | % Ga in Solution After 4 Days (omitted heating) ([1]; omitted heating, H2O2): 100%

Solubility (25° C.) [3]: 3.9 ± 1 ppm | Solubility (25° C.), molarity [3]: 1.68 × 10^-5 molarity
Compound: CCCCCCCCCC(=O)N(O)C(C)C [N--isopropyldecanohydroxamic acid]

Compound: O=P(O)(O)CCP(=O)(O)O [H2 O3 PCH2 CH2 PO3 H2, ethylene diphosphonic acid]
effectiveness in reaction and dissolution of gallium arsenide ([1]; H2O2 as oxidizing agent): an insoluble gallium complex may form and precipitate from the aqueous oxidizing medium | Initial Result: time to complete reaction ([1]; heating to 85° C., H2O2): 3 min

Compound: N-methyl naphthenohydroxamic acid [N--Methyl naphthenohydroxamic acid]
% Decomposition [2]: +0.14% | time to complete dissolution after addition to Test N mixture ([1]; 2.98 grams added to Test N mixture after no reaction in 11.5 min.): 60 s | effectiveness in reaction and dissolution of gallium arsenide ([1]; H2O2 as oxidizing agent): rapid reaction and dissolution of the gallium arsenide

Solubility (25° C.) [3]: 1.3 ± 1 ppm | Solubility (25° C.), molarity [3]: 4.60 × 10^-6 molarity
Compound: CCCCCCCCCCCCCCCC(=O)N(C)O [N--methylhexadecanohydroxamic acid]

Compound: O=[N+]([O-])O [HNO3 conc., nitric acid]
Result: time to complete reaction [4, 9]: 50 s | Result: time to complete reaction, no complexing agent ([4]; no complexing agent): 20 min

Solubility (25° C.) [3]: 0.7 ± 1 ppm | Solubility (25° C.), molarity [3]: 1.7 × 10^-6 molarity
Compound: CCCCCCCCCC(CCCCCCCCC)N(O)C(=O)C1CCCCC1 [N-(1-nonyldecyl) cyclohexanohydroxamic acid]

Compound: O.O=P([O-])(O)O.[Na+] [NaH2 PO4.H2 O]
% Ga in Solution After 4 Days [1, 7]: 0% | Initial Result [1, 8]: No reaction

Solubility (25° C.) [3]: 1.6 ± 1 ppm | Solubility (25° C.), molarity [3]: 5.71 × 10^-6 molarity
Compound: CCCCCCCCCC(=O)N(O)CCCCCC [N--hexyldecanohydroxamic acid]

Solubility (25° C.) [3]: 111. ppm and 82. ppm
Compound: CCCCCCCCCC(=O)N(C)O [N--methyldecanohydroxamic acid]

Compound: BrBr [liquid bromine, bromine]
Result: time to complete reaction, no heating [4, 9]: 37 s

Compound: O=P(O)(O)O [Potassium phosphate (K3 PO4), Potassium phosphate]
% Ga in Solution After 4 Days [1]: 100% | Initial Result: time to complete reaction (secs) [1]: 50

Compound: CCCCCCCC(=O)NO [octanohydroxamic acid]
Initial Result: % dissolved in 24 hrs. ([1]; 1.48 grams, omitted heating, 24 hrs.): 52.5% | % Ga in Solution After 4 Days (after addn. of 10 ml n-BuOH) ([1]; omitted heating, after addn. of 10 ml n-BuOH, H2O2): 100%

Compound: O=C(O)CN(CCN(CC(=O)O)CC(=O)O)CC(=O)O [Ethylene diamine tetracetic acid]
% Ga in Solution After 4 Days [1]: 84.2%

Compound: O=P([O-])([O-])OP(=O)([O-])OP(=O)([O-])[O-].[Na+].[Na+].[Na+].[Na+].[Na+] [Sodium Triphosphate]
% Ga in Solution After 4 Days [1]: 100%

Compound: CC(O)(P(=O)(O)O)P(=O)(O)O [Dequest ® 2010]
% Ga in Solution After 4 Days [1]: 100% | effectiveness in reaction and dissolution of gallium arsenide ([1]; H2O2 as oxidizing agent): works well

Compound: versatohydroxamic acid [versatohydroxamic acid (not N--alkyl), reference compound]
Solubility (25° C.) [3]: 1600. ppm | Solubility (25° C.), molarity [3]: 8.54 × 10^-3 molarity

Compound: O=P([O-])([O-])OP(=O)([O-])[O-].[Na+].[Na+].[Na+].[Na+] [Sodium pyrophosphate Na4 P2 O7, Sodium pyrophosphate]
% Ga in Solution After 4 Days [1]: 100% | Initial Result [1]: white prec. | Initial Result: time to complete reaction (min) [1]: 3

Compound: O=C(O)CC(O)(CC(=O)O)C(=O)O [Sodium citrate]
% Ga in Solution After 4 Days [1]: 100%

Compound: N-ethyl naphthenohydroxamic acid [N--Ethyl naphthenohydroxamic acid]
% Decomposition [2]: -0.53%

Compound: N-n-propyl naphthenohydroxamic acid [N--Propyl naphthenohydroxamic acid]
% Decomposition [2]: +0.74%

Compound: CCCCCCCCC(=O)N(C)O [N-methylnonanohydroxamic acid]
Solubility (25° C.) [3]: 409. ppm | Solubility (25° C.), molarity [3]: 2.18 × 10^-3 molarity | % Ga in Solution After 4 Days [1]: 100% | effectiveness in reaction and dissolution of gallium arsenide ([1]; H2O2 as oxidizing agent): effective complexing agent | As in combined aqueous acid stripping solutions [5, 10]: 15 ppm | Ga in combined aqueous acid stripping solutions [5, 10]: 1100 ppm | As in combined aqueous phase and wash solutions [5, 11]: 2510 ppm | Ga in combined aqueous phase and wash solutions [5, 11]: 114 ppm | arsenic and gallium in water washings of organic phase ([5]; detection limit less than 1 ppm for each element): Neither arsenic nor gallium was detectable | Ga recovered per gram of starting sludge ([5]; starting sludge 17.7 mg Ga/gram): 17.8 mg Ga per gram | As recovered per gram of starting sludge ([5]; starting sludge analyzed 13.4 mg As/gram): 17.3 mg As/gram | solubility in a typical phosphate rock treater dust leachate [6]: 20 ppm | solubility in a typical phosphate rock treater dust leachate, molarity [6]: 1.07×10^-4 molarity

Compound: O=S(=O)([O-])OOS(=O)(=O)[O-].[K+].[K+] [Potassium persulfate]
Result [4, 9]: No reaction

Compound: CCCCCCCCCc1ccc(O)cc1 [4-nonylphenol]
% Ga in Solution After 4 Days [1]: 0% | Initial Result [1]: No reaction
